Molecules are shown by their SMILES.

The assay deals with Plutella xylostella. The assay is described as follows: Plutella xylostella, leaf dip method. The settings on record: foliar, cabbage leaf dip, second instar larvae, 72 h after release, dead + moribund vs untreated control, read-out: percent mortality. Type of assay: in vivo. As to the method: The leaf dip method was used for testing, wherein the required quantity of the compound was weighed and dissolved in a tube containing solvent solution. The tube was put on a vortex at 2000 rpm for 90 min for proper mixing, then diluted with 0.01% Triton-X solution to get the desired test concentration. Cabbage leaves were dipped in the compound solution for 10 seconds, shade dried for 20 min and then transferred into the cells of bioassay trays. A single second instar larva was released into each cell and the tray was covered with a lid. The bio-assay trays were then kept under laboratory conditions at a temperature of 25° C. and a relative humidity of 70%. Observations on dead, moribund and alive larvae were recorded 72 h after the release. Percent mortality was calculated by combining dead and moribund larvae and comparing the result to the one of the untreated control.
Broadly, the mortality is the share of the test organisms that died. For the molecule `CCS(=O)(=O)c1cc(C)cnc1-c1ccn2nc(C(F)(F)F)cc2n1` [Compound 164, 5-(3-(ethylsulfonyl)-5-methylpyridin-2-yl)-2-(trifluoromethyl)pyrazolo[1,5-a]pyrimidine], the mortality at 300 ppm is no less than 70%.

With `CCS(=O)(=O)c1ccc(OC)nc1-c1ccn2nc(C(F)(F)F)cc2n1` [Compound 226, 5-(3-(ethylsulfonyl)-6-methoxypyridin-2-yl)-2-(trifluoromethyl)pyrazolo[1,5-a]pyrimidine], the mortality at 300 ppm was no less than 70%.

For `CCS(=O)(=O)c1ccc(C)nc1-c1ccn2nc(C(F)(F)F)nc2n1` [Compound 183, 5-(3-(ethylsulfonyl)-6-methylpyridin-2-yl)-2-(trifluoromethyl)-[1,2,4]triazolo[1,5-a]pyrimidine], the mortality at 300 ppm is no less than 70%.

Take `CCS(=O)(=O)c1ccc(-c2ccc(F)cc2)nc1-c1ccn2nc(C(F)(F)F)cc2n1` [Compound 16, 5-(3-(ethylsulfonyl)-6-(4-fluorophenyl)pyridin-2-yl)-2-(trifluoromethyl)pyrazolo[1,5-a]pyrimidine]: the mortality at 300 ppm is no less than 70%.

Regarding `CCS(=O)(=O)c1ccc(C=C(C)C)nc1-c1ccn2nc(C(F)(F)F)cc2n1` [Compound 210, 5-(3-(ethylsulfonyl)-6-(2-methylprop-1-en-1-yl)pyridin-2-yl)-2-(trifluoromethyl)pyrazolo[1,5-a]pyrimidine], the mortality at 300 ppm is no less than 70%.

For `CCS(=O)(=O)c1cc(-n2cc(Cl)cn2)cnc1-c1ccn2nc(C(F)(F)F)cc2n1` [Compound 89], the mortality at 300 ppm was no less than 70%.

As for `CCS(=O)(=O)c1cc(-c2cc(F)cc(Cl)c2)cnc1-c1ncc2nc(C(F)(F)F)n(C)c2n1` [Compound 131, 2-(5-(3-chloro-5-fluorophenyl)-3-(ethylsulfonyl)pyridin-2-yl)-9-methyl-8-(trifluoromethyl)-9H-purine], the mortality at 300 ppm is no less than 70%.

In the case of `CCS(=O)(=O)c1cc(-c2ccc(F)cc2)cnc1-c1ncc2nc(C(F)(F)F)n(C)c2n1` [Compound 118, 2-(3-(ethylsulfonyl)-5-(4-fluorophenyl)pyridin-2-yl)-9-methyl-8-(trifluoromethyl)-9H-purine], the mortality at 300 ppm was no less than 70%.

Turning to `CCS(=O)(=O)c1cc(NC2CC2)cnc1-c1ccn2nc(C(F)(F)F)cc2n1` [Compound 170, N-cyclopropyl-5-(ethylsulfonyl)-6-(2-(trifluoromethyl)pyrazolo[1,5-a]pyrimidin-5-yl)pyridin-3-amine], the mortality at 300 ppm was no less than 70%.

`CCS(=O)(=O)c1cc(-c2cnn(C)c2)cnc1-c1ccn2nc(C(F)(F)F)cc2n1` [Compound 97, 5-(3-(ethylsulfonyl)-5-(1-methyl-1H-pyrazol-4-yl)pyridin-2-yl)-2-(trifluoromethyl)pyrazolo[1,5-a]pyrimidine]: the mortality at 300 ppm was no less than 70%.

On to `CCS(=O)(=O)c1ccc(-n2cncn2)nc1-c1ccn2nc(C(F)(F)F)cc2n1` [Compound 3, 5-(3-(ethylsulfonyl)-6-(1H-1,2,4-triazol-1-yl)pyridin-2-yl)-2-(trifluoromethyl)pyrazolo[1,5-a]pyrimidine], for which the mortality at 300 ppm was no less than 70%.

As to `CCS(=O)(=O)c1cc(-n2cc(Br)cn2)cnc1-c1ccn2nc(C(F)(F)F)cc2n1` [Compound 88, 5-(5-(4-bromo-1H-pyrazol-1-yl)-3-(ethylsulfonyl)pyridin-2-yl)-2-(trifluoromethyl)pyrazolo[1,5-a]pyrimidine], the mortality at 300 ppm is no less than 70%.

With `CCSc1ccc(C)nc1-c1ccn2nc(C(F)(F)F)cc2n1` [Compound 181, 5-(3-(ethylthio)-6-methylpyridin-2-yl)-2-(trifluoromethyl)pyrazolo[1,5-a]pyrimidine], the mortality at 300 ppm is no less than 70%.

For the molecule `CCS(=O)(=O)c1cc(N)cnc1-c1ccn2nc(C(F)(F)F)cc2n1` [Compound 223, 5-(ethylsulfonyl)-6-(2-(trifluoromethyl)pyrazolo[1,5-a]pyrimidin-5-yl)pyridin-3-amine], the mortality at 300 ppm is no less than 70%.

For the molecule `CCSc1cc(-c2ccc(F)cc2)cnc1-c1ccn2nc(C(F)(F)F)cc2n1` [Compound 190, 5-(3-(ethylthio)-5-(4-fluorophenyl)pyridin-2-yl)-2-(trifluoromethyl)pyrazolo[1,5-a]pyrimidine], the mortality at 300 ppm was no less than 70%.

Take `CCS(=O)(=O)c1ccc(-n2ncn(-c3ccc(OC(F)(F)F)cc3)c2=O)nc1-c1ccn2nc(C(F)(F)F)cc2n1` [Compound 10, 2-(5-(ethylsulfonyl)-6-(2-(trifluoromethyl)pyrazolo[1,5-a]pyrimidin-5-yl)pyridin-2-yl)-4-(4-(trifluoromethoxy)phenyl)-2,4-dihydro-3H-1,2,4-triazol-3-one]: the mortality at 300 ppm was no less than 70%.

Take `CCS(=O)(=O)c1cc(C2CC2)cnc1-c1ccn2nc(C(F)(F)F)nc2n1` [Compound 142, 5-(5-cyclopropyl-3-(ethylsulfonyl)pyridin-2-yl)-2-(trifluoromethyl)-[1,2,4]triazolo[1,5-a]pyrimidine]: the mortality at 300 ppm is no less than 70%.

Take `CCS(=O)(=O)c1cc(C2CCC2)cnc1-c1ccn2nc(C(F)(F)F)cc2n1` [Compound 213, 5-(5-cyclobutyl-3-(ethylsulfonyl)pyridin-2-yl)-2-(trifluoromethyl)pyrazolo[1,5-a]pyrimidine]: the mortality at 300 ppm was no less than 70%.

As for `CCS(=O)(=O)c1cc(C=C(C)C)cnc1-c1ccn2nc(C(F)(F)F)cc2n1` [Compound 201, 5-(3-(ethylsulfonyl)-5-(2-methylprop-1-en-1-yl)pyridin-2-yl)-2-(trifluoromethyl)pyrazolo[1,5-a]pyrimidine], the mortality at 300 ppm is no less than 70%.

In the case of `CCS(=O)(=O)c1ccc(OC(C)C)nc1-c1ccn2nc(C(F)(F)F)cc2n1` [Compound 240, 5-(3-(ethylsulfonyl)-6-isopropoxypyridin-2-yl)-2-(trifluoromethyl)pyrazolo[1,5-a]pyrimidine], the mortality at 300 ppm was no less than 70%.

Turning to `CCS(=O)(=O)c1cc(-c2cc(F)cc(F)c2)cnc1-c1ccn2nc(C(F)(F)F)nc2n1` [Compound 103, 5-(5-(3,5-difluorophenyl)-3-(ethylsulfonyl)pyridin-2-yl)-2-(trifluoromethyl)-[1,2,4]triazolo[1,5-a]pyrimidine], the mortality at 300 ppm was no less than 70%.

Regarding `CCS(=O)(=O)c1cc(-n2cnc(Br)n2)cnc1-c1ccn2nc(C(F)(F)F)cc2n1` [Compound 177, 5-(5-(3-bromo-1H-1,2,4-triazol-1-yl)-3-(ethylsulfonyl)pyridin-2-yl)-2-(trifluoromethyl)pyrazolo[1,5-a]pyrimidine], the mortality at 300 ppm was no less than 70%.

In the case of `CCS(=O)(=O)c1cc(-c2cc(C(F)(F)F)nn2C)cnc1-c1ncc2nc(C(F)(F)F)n(C)c2n1` [Compound 121, 2-(3-(ethylsulfonyl)-5-(1-methyl-3-(trifluoromethyl)-1H-pyrazol-5-yl)pyridin-2-yl)-9-methyl-8-(trifluoromethyl)-9H-purine], the mortality at 300 ppm was no less than 70%.

On to `CCS(=O)(=O)c1cc(-c2cccc(OC(F)(F)C(F)F)c2)cnc1-c1ccn2nc(C(F)(F)F)nc2n1` [Compound 144, 5-(3-(ethylsulfonyl)-5-(3-(1,1,2,2-tetrafluoroethoxy)phenyl)pyridin-2-yl)-2-(trifluoromethyl)-[1,2,4]triazolo[1,5-a]pyrimidine], for which the mortality at 300 ppm was no less than 70%.

Consider `CCS(=O)(=O)c1ccc(NCC2CC2)nc1-c1ccn2nc(C(F)(F)F)cc2n1` [Compound 242, N-(cyclopropylmethyl)-5-(ethylsulfonyl)-6-(2-(trifluoromethyl)pyrazolo[1,5-a]pyrimidin-5-yl)pyridin-2-amine], for which the mortality at 300 ppm was no less than 70%.

Consider `CCS(=O)(=O)c1cc(-c2ccnn2C)cnc1-c1ccn2nc(C(F)(F)F)cc2n1` [Compound 71, 5-(3-(ethylsulfonyl)-5-(1-methyl-1H-pyrazol-5-yl)pyridin-2-yl)-2-(trifluoromethyl)pyrazolo[1,5-a]pyrimidine], for which the mortality at 300 ppm is no less than 70%.

On to `CCS(=O)(=O)c1cc(-c2ccc(F)cc2)cnc1-c1ccn2nc(C(F)(F)F)nc2n1` [Compound 105, 5-(3-(ethylsulfonyl)-5-(4-fluorophenyl)pyridin-2-yl)-2-(trifluoromethyl)-[1,2,4]triazolo[1,5-a]pyrimidine], for which the mortality at 300 ppm was no less than 70%.

As to `CCS(=O)(=O)c1cc(-c2ccc(C(F)(F)F)cc2)cnc1-c1ncc2nc(C(F)(F)F)n(C)c2n1` [Compound 129, 2-(3-(ethylsulfonyl)-5-(4-(trifluoromethyl)phenyl)pyridin-2-yl)-9-methyl-8-(trifluoromethyl)-9H-purine], the mortality at 300 ppm is no less than 70%.

On to `CCS(=O)(=O)c1ccc(-c2ccc(Cl)cc2)nc1-c1cnc2nc(C(F)(F)F)nn2c1` [Compound 47, 6-(6-(4-chlorophenyl)-3-(ethylsulfonyl)pyridin-2-yl)-2-(trifluoromethyl)-[1,2,4]triazolo[1,5-a]pyrimidine], for which the mortality at 300 ppm was no less than 70%.

As for `CCS(=O)(=O)c1ccc(-c2ccc(OC(F)(F)C(F)F)cc2)nc1-c1ccn2nc(C(F)(F)F)cc2n1` [Compound 28, 5-(3-(ethylsulfonyl)-6-(4-(1,1,2,2-tetrafluoroethoxy)phenyl)pyridin-2-yl)-2-(trifluoromethyl)pyrazolo[1,5-a]pyrimidine], the mortality at 300 ppm is no less than 70%.

Regarding `CC#Cc1ccc(S(=O)(=O)CC)c(-c2ccn3nc(C(F)(F)F)cc3n2)n1` [Compound 173, 5-(3-(ethylsulfonyl)-6-(prop-1-yn-1-yl)pyridin-2-yl)-2-(trifluoromethyl)pyrazolo[1,5-a]pyrimidine], the mortality at 300 ppm was no less than 70%.

For the molecule `CCS(=O)(=O)c1ccc(-c2ccc(Cl)cc2)nc1-c1ccn2nc(C(F)(F)F)cc2n1` [Compound 20, 5-(6-(4-chlorophenyl)-3-(ethylsulfonyl)pyridin-2-yl)-2-(trifluoromethyl)pyrazolo[1,5-a]pyrimidine], the mortality at 300 ppm was no less than 70%.

For the origin of these results see US12514251B2, “Fused heterocyclic compounds and their use as pest control agents” (priority 2020, dated 2026).
